Data reported in US7345058B2, “Pyrazoles” (Hoffmann-La Roche Inc., priority 2005, dated 2008).
pIC50: −log10 of the molar value.

target: Purified human HSD1 (Homo sapiens, UniProt P28845); assay: In vitro inhibition of 11β-HSD1 (time-resolved fluorescence, cortisone to cortisol); type: biochemical; conditions: purified human HSD1, cortisone substrate, incubated at 37° C. for 30 min
Experimental: Purified human HSD1 was diluted in 50 mM Tris-HCl, 100 mM NaCl, 0.1 mg/ml BSA, 0.02% Lubrol, 20 mM MgCl2, 10 mM glucose 6-phosphate, 0.4 mM NADPH, 60 U/ml glucose 6-phosphate dehydrogenase to a concentration of 1.5 ug/ml (Enzyme Solution). Cortisone (100 uM) in DMSO was diluted to 1 uM with 50 mM Tris-HCl, 100 mM NaCl (Substrate Solution). Testing compounds (40 uM) in DMSO were diluted 3 fold in series in DMSO and further diluted 20 fold in Substrate Solution. Enzyme Solution (10 ul/well) was added into 384 well microtiter plates followed by diluted compound solutions (10 ul/well) and mixed well. Samples were then incubated at 37° C. for 30 min. EDTA/biotin-cortisol solution (10 ul/well) in 28 mM EDTA, 100 nM biotin-cortisol, 50 mM Tris-HCl, 100 mM NaCl was then added followed by 5 ul/well of anti-cortisol antibody (3.2 ug/ml) in 50 mM Tris-HCl, 100 mM NaCl, 0.1 mg/ml BSA and the solution was incubated at 37° C. for 30 min. Five ul per well of Eu-conjugated anti-mouse IgG (16 nM) and APC-conjugated streptavidin (160 nM) in 50 mM Tris-HCl, 100 mM NaCl, 0.1 mg/ml BSA were added and the solution was incubated at room temperature for 2 hours. Signals were quantitated by reading time-resolved fluorescence on a Victor 5 reader (Wallac).
Percent inhibition of HSD 1 activity by an agent at various concentrations was calculated by the formula % Inhibition=100*[1−(Fs−Fb)/(Ft−Fb)], where: • Fs is the fluorescence signal of the sample which included the agent, • Fb is the fluorescence signal in the absence of HSD1 and agent, • Ft is the fluorescence signal in the presence of HSD1, but no agent.
The inhibitory activities of test compounds were determined by the IC50s, or the concentration of compound that gave 50% inhibition.

Chain of Purified human HSD1 (P28845 whole entry): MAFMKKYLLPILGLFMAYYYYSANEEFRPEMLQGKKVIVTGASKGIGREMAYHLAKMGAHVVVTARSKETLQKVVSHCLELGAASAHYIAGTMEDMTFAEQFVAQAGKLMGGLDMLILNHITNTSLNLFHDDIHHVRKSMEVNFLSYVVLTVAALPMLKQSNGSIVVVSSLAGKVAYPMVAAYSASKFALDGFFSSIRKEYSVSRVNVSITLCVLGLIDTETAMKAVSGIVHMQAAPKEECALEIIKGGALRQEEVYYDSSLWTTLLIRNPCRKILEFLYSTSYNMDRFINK

Row | Compound | pIC50
1 | CC(C)c1cccc(-c2c(C(=O)N3CCCC4CCCCC43)cnn2C)c1 (stereo not shown) [Example 12, [5-(3-Isopropyl-phenyl)-1-methyl-1H-py-razol-4-yl]-(octa-hydro-quinolin-1-yl)-meth-anone] | 7.23
2 | Cn1ncc(C(=O)N2CCCC3CCCCC32)c1-c1cnc2ccccc2c1 (stereo not shown) [Example 19] | 6.72
3 | Cn1ncc(C(=O)N2CCCC3CCCCC32)c1-c1cccc(C=O)c1 (stereo not shown) [Example 21, 3-[2-Methyl-4-(octa-hydro-quinoline-1-carbo-nyl)-2H-pyra-zol-3-yl]-benzaldehyde] | 6.00
4 | CSc1ccc(-c2c(C(=O)N3CCCC4CCCCC43)cnn2C)cc1 (stereo not shown) [Example 33] | 7.11
5 | Cn1ncc(C(=O)N2CCC(Cl)C3CCCCC32)c1-c1ccccc1 (stereo not shown) [Example 36] | 6.22
6 | Cn1ncc(C(=O)N2CCCC3CCCCC32)c1-c1ccc(F)c(Cl)c1 (stereo not shown) [Example 39, [5-(3-Chloro-4-fluoro-phenyl)-1-meth-yl-1H-pyrazol-4-yl]-(octa-hydro-quinolin-1-yl)-meth-anone] | 6.68
7 | Cc1c(Cl)cccc1-c1c(C(=O)N2CCCC3CCCCC32)cnn1C (stereo not shown) [Example 46, [5-(3-Chloro-2-meth-yl-phenyl)-1-meth-yl-1H-pyrazol-4-yl]-(octa-hydro-quinolin-1-yl)-meth-anone] | 7.42
8 | Cn1ncc(C(=O)N2CCCC3CCCCC32)c1-c1cccc(C(F)(F)F)c1 (stereo not shown) [Example 49, [1-Methyl-5-(3-tri-fluoromethyl-phenyl)-1H-py-razol-4-yl]-(octa-hydro-quinolin-1-yl)-meth-anone] | 6.80
9 | Cn1ncc(C(=O)N2CCCC3CCCCC32)c1-c1ccc(C(F)(F)F)c(Cl)c1 (stereo not shown) [Example 52, [5-(3-Chloro-4-tri-fluoromethyl-phenyl)-1-meth-yl-1H-pyra-zol-4-yl]-(octa-hydro-quinolin-1-yl)-meth-anone] | 6.71
10 | Cn1ncc(C(=O)N2CCCC3CCCCC32)c1-c1ccc([N+](=O)[O-])cc1 (stereo not shown) [Example 55, [1-Methyl-5-(4-ni-tro-phenyl)-1H-pyra-zol-4-yl]-(octa-hydro-quinolin-1-yl)-methanone] | 6.26
11 | Cn1ncc(C(=O)N2CCCC3CCCCC32)c1-c1cccc(O)c1 (stereo not shown) [Example 59, [5-(3-Hydroxy-phe-nyl)-1-methyl-1H-pyra-zol-4-yl]-(octa-hydro-quinolin-1-yl)-meth-anone] | 6.15
12 | Cn1ncc(C(=O)N2CCCC3CCCCC32)c1-c1ccc(CO)cc1 (stereo not shown) [Example 67, [5-(4-Hydroxy-methyl-phenyl)-1-meth-yl-1H-pyra-zol-4-yl]-(octa-hydro-quinolin-1-yl)-meth-anone] | 6.92
13 | CCOc1ccc(-c2c(C(=O)N3CCCC4CCCCC43)cnn2C)c(Cl)c1 (stereo not shown) [Example 82, [5-(2-Chloro-4-eth-oxy-phenyl)-1-meth-yl-1H-pyrazol-4-yl]-(octa-hydro-quinolin-1-yl)-meth-anone] | 7.68
14 | Cn1ncc(C(=O)NC2CCCCCCC2)c1-n1cccc1 [Example 96, 1-Methyl-5-pyrrol-1-yl-1H-py-razole-4-carboxylic acidcyclooctylamide] | 7.24
15 | Cn1ncc(C(=O)N2CCCC(Cc3ccccc3)C2)c1-n1cccc1 (stereo not shown) [Example 106, (3-Benzyl-piperidin-1-yl)-(1-meth-yl-5-pyrrol-1-yl-1H-py-razol-4-yl)-methanone] | 5.83
16 | CCC1CCCCN1C(=O)c1cnn(C)c1-c1ccccc1 (stereo not shown) [Example 107, (2-Ethyl-piperidin-1-yl)-(1-meth-yl-5-phe-nyl-1H-pyrazol-4-yl)-methanone] | 6.59
